Reference: US20250074891A1 (Anaxis Pharma Pty Ltd., priority 2021, published 2025)

Legend:
MLKL = MLKL (Homo sapiens (Human), UniProt Q8NB16); assay: Binding to MLKL (KD), in vitro; details: in vitro assays
MLKL (full length) = MLKL (full length) (Homo sapiens (Human), UniProt Q8NB16); assay: KINOMEscan binding assay, MLKL (full length); details: Table 36
Protocol: Kinase assays. For most assays, kinase-tagged T7 phage strains were grown in parallel in 24-well blocks in an E. coli host derived from the BL21 strain. E. coli were grown to log-phase and infected with T7 phage from a frozen stock (multiplicity of infection=0.4) and incubated with shaking at 32° C. until lysis (90-150 minutes).
The Hill Slope was set to −1.

[1] = tested on: U937 human histiocytic leukemia cell line; assay: Cellular assay: inhibition of TSQ induced necroptosis (CellTitre-Glo); details: Homo sapiens, U-937; U937 cells, TSQ cocktail, 48 hours, Table 38; read-out: Inhibition of TSQ-induced necroptosis (IC50 cell-based assay)
Procedure, shortened: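 U937 cells (20,000/well) pre-dosed with compound (10-point, 1:3 from 36 μM, 0.3% DMSO), then TSQ (hTNF-Fc 100 ng/ml, Smac mimetic 500 nM, Q-VD-OPh 10 μM) for 48 h at 37 °C. Viability by CellTiter-Glo luminescence, normalised to DMSO (100%) and DMSO+TSQ (0%); IC50 from 4-parameter fit.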

U937 cells = assay: Counter screen: cell viability without TSQ cocktail (off-target effect); parameters: species or system human; details: Homo sapiens, U-937, Table 38, read-out: Off-target effect (IC50 cell-based assay)
Protocol: Counter screen: In parallel, all compounds were tested for their ability to affect cell viability. The same U937 cells were treated with compound in DMSO without the TSQ cocktail. This counter screen enabled evaluation of off-target effects. In this case, cell viability was measured by CelltiterGlo.

endogenous MLKL in U937 = endogenous MLKL in U937 (Homo sapiens (Human), UniProt Q8NB16); assay: Degradation assay: degradation of endogenous MLKL in human cells (Western blot); details: 24 h incubation, read-out: Degradation of endogenous MLKL in U937 (DC50 cell-based assay in μM)
Sequence of endogenous MLKL in U937 (Q8NB16 whole entry): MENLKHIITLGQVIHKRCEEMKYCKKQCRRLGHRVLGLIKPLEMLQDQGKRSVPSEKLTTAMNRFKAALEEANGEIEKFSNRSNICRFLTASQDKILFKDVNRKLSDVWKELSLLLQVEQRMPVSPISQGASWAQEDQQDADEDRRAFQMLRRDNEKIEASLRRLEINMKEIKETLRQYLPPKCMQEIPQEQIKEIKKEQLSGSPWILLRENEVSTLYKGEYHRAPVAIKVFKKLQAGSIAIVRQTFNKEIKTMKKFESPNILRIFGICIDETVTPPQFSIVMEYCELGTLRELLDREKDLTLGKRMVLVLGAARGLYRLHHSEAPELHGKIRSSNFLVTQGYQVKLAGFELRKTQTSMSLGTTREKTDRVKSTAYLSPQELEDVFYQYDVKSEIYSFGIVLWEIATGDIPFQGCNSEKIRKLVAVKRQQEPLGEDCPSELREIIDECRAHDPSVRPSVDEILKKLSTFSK

Sequence of MLKL (full length) (Q8NB16 whole entry): as above
Sequence of MLKL (Q8NB16 whole entry): as above

SMILES | Kd (MLKL) [µM] | Kd (MLKL (full length)) [µM] | IC50 [1] [µM] | IC50 (U937 cells) [µM] | DC50 (endogenous MLKL in U937) [µM]
CCS(=O)(=O)Nc1ccc(-c2n[nH]c(Nc3ccc(C(=O)OCCCCC(=O)N[C@H](C(=O)N4C[C@H](O)C[C@H]4C(=O)NCc4ccc(-c5scnc5C)cc4)C(C)(C)C)cn3)c2C#N)cc1O[C@@H](C)c1ccc(F)cc1 [Compound 1061, 4-{[(2S)-1-[(2S,4R)-4-hydroxy-2-({[4-(4-methyl-1,3-thiazol-5-yl)phenyl]methyl}carbamoyl)pyrrolidin-1-yl]-3,3-dimethyl-1-oxobutan-2-yl]carbamoyl}butyl 6-[(4-cyano-3-{4-ethanesulfonamido-3-[(1S)-1-(4-fluorophenyl)ethoxy]phenyl}-1H-pyrazol-5-yl)amino]pyridine-3-carboxylate] | ~2 |  |  |  | 
CCS(=O)(=O)Nc1ccc(-c2n[nH]c(Nc3ccnc(OCCCCC(=O)N[C@H](C(=O)N4C[C@H](O)C[C@H]4C(=O)NCc4ccc(-c5scnc5C)cc4)C(C)(C)C)c3)c2C(N)=O)cc1 [Compound 1013, 3-(4-ethanesulfonamidophenyl)-5-{[2-(4-{[(2S)-1-[(2S,4R)-4-hydroxy-2-({[4-(4-methyl-1,3-thiazol-5-yl)phenyl]methyl}carbamoyl)pyrrolidin-1-yl]-3,3-dimethyl-1-oxobutan-2-yl]carbamoyl}butoxy)pyridin-4-yl]amino}-1H-pyrazole-4-carboxamide] |  | < 0.01 | 1 to 10 | > 10 | 1 to 10
CCS(=O)(=O)Nc1ccc(-c2n[nH]c(Nc3ccc(OCCCCC(=O)N[C@H](C(=O)N4C[C@H](O)C[C@H]4C(=O)NCc4ccc(-c5scnc5C)cc4)C(C)(C)C)cn3)c2C(N)=O)cc1OCc1ccc(F)cc1 [Compound 1024, 3-{4-ethanesulfonamido-3-[(4-fluorophenyl)methoxy]phenyl}-5-{[5-(4-{[(2S)-1-[(2S,4R)-4-hydroxy-2-({[4-(4-methyl-1,3-thiazol-5-yl)phenyl]methyl}carbamoyl)pyrrolidin-1-yl]-3,3-dimethyl-1-oxobutan-2-yl]carbamoyl}butoxy)pyridin-2-yl]amino}-1H-pyrazole-4-carboxamide] |  | < 0.01 | < 1 | > 10 | < 1
Cc1ncsc1-c1ccc(CNC(=O)[C@@H]2C[C@@H](O)CN2C(=O)[C@@H](NC(=O)CCCCOC(=O)c2ccc(Nc3[nH]nc(-c4ccc(NS(=O)(=O)C(F)F)c(F)c4)c3C(N)=O)nc2)C(C)(C)C)cc1 [Compound 1053] |  | < 0.01 | 1 to 10 | > 10 | 1 to 10
